Like-named read-outs stand apart in the source and are kept apart here.
What was measured:
[1] = tested on: ZF4 (fibroblasts) cell line; experiment: MTS assay (MTS/BCA multiplex), NAD(P)H metabolism; assay type: cell-based, zebrafish (Danio rerio); details: Danio rerio, Fibroblast
[2] = tested on: ZFL (hepatocytes) cell line; experiment: cells; assay type: cell-based, zebrafish (Danio rerio); details: Danio rerio, Hepatocyte
[3] = tested on: ZF4 (fibroblasts) cell line; experiment: BCA assay (MTS/BCA multiplex), protein amount; assay type: cell-based, zebrafish (Danio rerio); details: Danio rerio, Fibroblast
[4] = tested on: ZFL (hepatocytes) cell line; experiment: cells; assay type: cell-based, zebrafish (Danio rerio); details: Danio rerio, Hepatocyte; remark: listed apart in the source
[5] = tested on: ZF4 (fibroblasts) cell line; experiment: ATP assay (ATP/LDH multiplex), ATP metabolism; assay type: cell-based, zebrafish (Danio rerio); details: Danio rerio, Fibroblast
[6] = tested on: ZFL (hepatocytes) cell line; experiment: cells; assay type: cell-based, zebrafish (Danio rerio); details: Danio rerio, Hepatocyte; remark: listed apart in the source
[7] = tested on: ZF4 (fibroblasts) cell line; experiment: alamarBlue (AB) endpoint of AB/CFDA/NR multiplex, cellular respiration; assay type: cell-based, zebrafish (Danio rerio); details: Danio rerio, Fibroblast
[8] = tested on: ZFL (hepatocytes) cell line; experiment: cells; assay type: cell-based, zebrafish (Danio rerio); details: Danio rerio, Hepatocyte; remark: listed apart in the source
[9] = tested on: ZF4 (fibroblasts) cell line; experiment: CFDA endpoint of AB/CFDA/NR multiplex, membrane stability; assay type: cell-based, zebrafish (Danio rerio); details: Danio rerio, Fibroblast
[10] = tested on: ZFL (hepatocytes) cell line; experiment: cells; assay type: cell-based, zebrafish (Danio rerio); details: Danio rerio, Hepatocyte; remark: listed apart in the source
[11] = tested on: ZF4 (fibroblasts) cell line; experiment: Neutral red, absorbance (NRa), AB/CFDA/NR multiplex, lysosome stability; assay type: cell-based, zebrafish (Danio rerio); details: Danio rerio, Fibroblast
[12] = tested on: ZFL (hepatocytes) cell line; experiment: cells; assay type: cell-based, zebrafish (Danio rerio); details: Danio rerio, Hepatocyte; remark: listed apart in the source
[13] = tested on: ZF4 (fibroblasts) cell line; experiment: Neutral red, fluorescence (NRf), AB/CFDA/NR multiplex, lysosome stability; assay type: cell-based, zebrafish (Danio rerio); details: Danio rerio, Fibroblast
[14] = tested on: ZFL (hepatocytes) cell line; experiment: cells; assay type: cell-based, zebrafish (Danio rerio); details: Danio rerio, Hepatocyte; remark: listed apart in the source
[15] = tested on: zebrafish embryos; experiment: animal or person; assay type: in vivo, zebrafish (Danio rerio); details: for EC50: Danio rerio
[16] = tested on: ZF4 and ZFL cell lines; experiment: Cytotoxicity assays, all endpoints, both cell lines (mean/range); assay type: cell-based, zebrafish (Danio rerio); details: 48 h, mean of all cytotoxicity endpoints (without LDH) in ZF4 and ZFL
[17] = tested on: zebrafish cell lines vs zebrafish embryo; experiment: Potency ratios IC50;x/EC50;x (cytotoxicity assays vs mFET); set-up: species or system zebrafish (Danio rerio)
[18] = tested on: zebrafish embryos; set-up: method as in earlier work; details: nominal, cited from earlier work
[19] = tested on: diverse mammalian cell assay results; set-up: method as in https://comptox.epa.gov/dashboard/; details: COMPTOX; ref https://comptox.epa.gov/dashboard/; read-out: median AC50; cited from earlier work
[20] = ref Comptox, PubChem or DrugBank; cited from earlier work

COC(=O)Nc1nc2ccc(Sc3ccccc3)cc2[nH]1 [Fenbendazole, fenbendazole]
IC50 ([1]; MTS - ZF4, log10 of IC50, read-out: LogIC50 (converted)): 5.84 µM | IC50 ([1]; MTS - ZF4, read-out: IC50): 5.84 µM | IC50 ([1]; ZF4, 48 h exposure, nominal, log10, read-out: logIC50 (log10 IC50;nom) MTS (converted)): 5.89 µM | IC50 ([1]; ZF4, 48 h exposure, nominal, read-out: IC50;nom MTS): 5.84 µM | IC50 ([2]; MTS - ZFL, log10 of IC50, read-out: LogIC50 (converted)): 0.166 µM | IC50 ([2]; MTS - ZFL, read-out: IC50): 0.166 µM | IC50 ([2]; ZFL, 48 h exposure, nominal, log10, read-out: logIC50 (log10 IC50;nom) MTS (converted)): 0.166 µM | IC50 ([2]; ZFL, 48 h exposure, nominal, read-out: IC50;nom MTS): 0.166 µM | IC50 ([3]; BCA - ZF4, log10 of IC50, read-out: LogIC50 (converted)): 1.15 µM | IC50 ([3]; BCA - ZF4, read-out: IC50): 1.15 µM | IC50 ([3]; ZF4, 48 h exposure, nominal, log10, read-out: logIC50 (log10 IC50;nom) BCA (converted)): 1.15 µM | IC50 ([3]; ZF4, 48 h exposure, nominal, read-out: IC50;nom BCA): 1.15 µM | IC50 ([4]; BCA - ZFL, log10 of IC50, read-out: LogIC50 (converted)): 0.125 µM | IC50 ([4]; BCA - ZFL, read-out: IC50): 0.125 µM | IC50 ([4]; ZFL, 48 h exposure, nominal, log10, read-out: logIC50 (log10 IC50;nom) BCA (converted)): 0.126 µM | IC50 ([4]; ZFL, 48 h exposure, nominal, read-out: IC50;nom BCA): 0.125 µM | IC50 ([5]; ATP - ZF4, log10 of IC50, read-out: LogIC50 (converted)): 7.49 µM | IC50 ([5]; ATP - ZF4, read-out: IC50): 7.49 µM | IC50 ([5]; ZF4, 48 h exposure, nominal, log10, read-out: logIC50 (log10 IC50;nom) ATP (converted)): 7.41 µM | IC50 ([5]; ZF4, 48 h exposure, nominal, read-out: IC50;nom ATP): 7.49 µM | IC50 ([6]; ATP - ZFL, log10 of IC50, read-out: LogIC50 (converted)): 9.85 µM | IC50 ([6]; ATP - ZFL, read-out: IC50): 9.85 µM | IC50 ([6]; ZFL, 48 h exposure, nominal, log10, read-out: logIC50 (log10 IC50;nom) ATP (converted)): 9.77 µM | IC50 ([6]; ZFL, 48 h exposure, nominal, read-out: IC50;nom ATP): 9.85 µM | IC50 ([7]; AB - ZF4, log10 of IC50, read-out: LogIC50 (converted)): 3.57 µM | IC50 ([7]; AB - ZF4, read-out: IC50): 3.57 µM | IC50 ([7]; ZF4, 48 h exposure, nominal, log10, read-out: logIC50 (log10 IC50;nom) AB (converted)): 3.55 µM | IC50 ([7]; ZF4, 48 h exposure, nominal, read-out: IC50;nom AB): 3.57 µM | IC50 ([8]; AB - ZFL, log10 of IC50, read-out: LogIC50 (converted)): 0.985 µM | IC50 ([8]; AB - ZFL, read-out: IC50): 0.985 µM | IC50 ([8]; ZFL, 48 h exposure, nominal, log10, read-out: logIC50 (log10 IC50;nom) AB (converted)): 0.977 µM | IC50 ([8]; ZFL, 48 h exposure, nominal, read-out: IC50;nom AB): 0.985 µM | IC50 ([9]; CFDA - ZF4, log10 of IC50, read-out: LogIC50 (converted)): 49.5 µM | IC50 ([9]; CFDA - ZF4, read-out: IC50): 49.5 µM | IC50 ([9]; ZF4, 48 h exposure, nominal, log10, read-out: logIC50 (log10 IC50;nom) CFDA (converted)): 49 µM | IC50 ([9]; ZF4, 48 h exposure, nominal, read-out: IC50;nom CFDA): 49.5 µM | IC50 ([10]; CFDA - ZFL, log10 of IC50, read-out: LogIC50 (converted)): 21.4 µM | IC50 ([10]; CFDA - ZFL, read-out: IC50): 21.4 µM | IC50 ([10]; ZFL, 48 h exposure, nominal, log10, read-out: logIC50 (log10 IC50;nom) CFDA (converted)): 21.4 µM | IC50 ([10]; ZFL, 48 h exposure, nominal, read-out: IC50;nom CFDA): 21.4 µM | IC50 ([11]; NR-abs - ZF4, log10 of IC50, read-out: LogIC50 (converted)): 1.55 µM | IC50 ([11]; NR-abs - ZF4, read-out: IC50): 1.55 µM | IC50 ([11]; ZF4, 48 h exposure, nominal, log10, read-out: logIC50 (log10 IC50;nom) NRa (converted)): 1.55 µM | IC50 ([11]; ZF4, 48 h exposure, nominal, read-out: IC50;nom NRa): 1.55 µM | IC50 ([11]; ZF4 cell line, NRa endpoint, nominal, read-out: IC50;nom): 0.46 µg/mL | IC50 ([12]; NR-abs - ZFL, log10 of IC50, read-out: LogIC50 (converted)): 0.532 µM | IC50 ([12]; NR-abs - ZFL, read-out: IC50): 0.532 µM | IC50 ([12]; ZFL, 48 h exposure, nominal, log10, read-out: logIC50 (log10 IC50;nom) NRa (converted)): 0.537 µM | IC50 ([12]; ZFL, 48 h exposure, nominal, read-out: IC50;nom NRa): 0.532 µM | IC50 ([13]; NR-fluo - ZF4, log10 of IC50, read-out: LogIC50 (converted)): 10.4 µM | IC50 ([13]; NR-fluo - ZF4, read-out: IC50): 10.4 µM | IC50 ([13]; ZF4, 48 h exposure, nominal, log10, read-out: logIC50 (log10 IC50;nom) NRf (converted)): 10.5 µM | IC50 ([13]; ZF4, 48 h exposure, nominal, read-out: IC50;nom NRf): 10.4 µM | IC50 ([14]; NR-fluo - ZFL, log10 of IC50, read-out: LogIC50 (converted)): 0.584 µM | IC50 ([14]; NR-fluo - ZFL, read-out: IC50): 0.584 µM | IC50 ([14]; ZFL, 48 h exposure, nominal, log10, read-out: logIC50 (log10 IC50;nom) NRf (converted)): 0.589 µM | IC50 ([14]; ZFL, 48 h exposure, nominal, read-out: IC50;nom NRf): 0.584 µM | difference in toxicity (EC50;nom) between 48 hpf and 144 hpf ([15]; 48 hpf time point less sensitive than 144 hpf): approximately the same | log EC50;nom (mFET) ([15]; 48 hpf, nominal, log10, listed as Fen): -7.115 M | EC50 ([15]; 48 hpf, nominal, log10, read-out: log EC50;nom (mFET) (converted)): 0.0776 µM | EC50 ([15]; 48 hpf, nominal, read-out: EC50;nom (embryo)): 0.02 µg/mL | EC50 ([15]; read-out: EC50 48hpf): 0.0768 µM | EC50 ([15]; read-out: EC50;nom (mFET)): 0.0768 µM | IC50 ([16]; Danio rerio, log10, read-out: Mean log IC50nom (converted)): 2.4 µM | Mean log IC50nom ([16]; log10, listed as Fen): -5.623 M | potency ratio IC50;nom/EC50;nom (median) ([17]; median over cytotoxicity endpoints, nominal, 48 h cells / 48 hpf mFET): 33.3 | difference in sensitivity between embryo (EC50;nom) and cells (IC50;nom) ([17]; nominal concentrations, higher potency in the mFET): two to three log-scales more sensitive in the mFET | EC50 ([18]; 144 hpf, converted): 0.0802 µM | logEC50 144 hpf ([18]; log10): -7.0959 M | AC50 [19]: 0.9 µM | BCF [20]: 1.18E+03 | Physiological charge [20]: 0 | Water Solubility [20]: insoluble | logKoa [20]: 9.49 | logKow [20]: 3.21 | pKa (Strongest Acidic) [20]: 9.59 | pKa (Strongest Basic) [20]: 4.06 | w_solubility (water solubility) [20]: 26.7 µM

Reference: paper PMC7872314, “Modeling Bioavailable Concentrations in Zebrafish Cell Lines and Embryos Increases the Correlation of Toxicity Potencies across Test Systems” (Environmental Science & Technology, 2020)
